Assay results published in the supplement of paper PMC10307832.

Experiments:
Experiment in all cases: relative viability (nuclei count vs DMSO), 5 days (fraction); higher = more cells survive
[1] = compound: CN(NC(=O)CC(=O)NN(C)C(=S)c1ccccc1)C(=S)c1ccccc1 [Elesclomol] + C[C@]1(O)C[C@@H](c2nc(-c3ccc4ccc(-c5ccccc5)nc4c3)c3c(N)nccn32)C1 [Linsitinib] (partner 1 µM)
Procedure, shortened: (§1)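 Nuclei were stained with Hoechst during a one-step fixation (final 0.05% Triton X-100, 1% formaldehyde, 1 ug/ml Hoechst) carried out 5 days after dosing, then counted on 4× images. The cells, lung cancer lines in 1536-well plates, had been dosed by pin tool the day after seeding with one drug alone or a fixed anchor-drug dose plus five library-drug doses (not always all listed) in √10 steps. Relative viability is the nuclei count in treated wells divided by that in vehicle wells, and each value is the median of duplicate plates.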

[2] = compound: CN(NC(=O)CC(=O)NN(C)C(=S)c1ccccc1)C(=S)c1ccccc1 [Elesclomol] + NC(=O)Nc1cc(-c2cccc(F)c2)sc1C(=O)N[C@H]1CCCNC1 [AZD7762] (partner 0.2 µM)
Procedure, shortened: as §1

[3] = compound: CN(NC(=O)CC(=O)NN(C)C(=S)c1ccccc1)C(=S)c1ccccc1 [Elesclomol] + CCNC(=O)c1noc(-c2cc(C(C)C)c(O)cc2O)c1-c1ccc(CN2CCOCC2)cc1 [Luminespib] (partner 0.01 µM)
Procedure, shortened: as §1

[4] = compound: CN(NC(=O)CC(=O)NN(C)C(=S)c1ccccc1)C(=S)c1ccccc1 [Elesclomol] + O=C(c1cc(Cc2n[nH]c(=O)c3ccccc23)ccc1F)N1CCN(C(=O)C2CC2)CC1 [Olaparib] (partner 8 µM)
Procedure, shortened: as §1

[5] = compound: CN(NC(=O)CC(=O)NN(C)C(=S)c1ccccc1)C(=S)c1ccccc1 [Elesclomol] + CC(=O)c1c(C)c2cnc(Nc3ccc(N4CCNCC4)cn3)nc2n(C2CCCC2)c1=O [Palbociclib] (partner 0.5 µM)
Procedure, shortened: as §1

| Cell Line | relative viability ([1]; first compound 0.003162 µM) | relative viability ([1]; first compound 0.01 µM) | relative viability ([1]; first compound 0.03162 µM) | relative viability ([1]; first compound 0.1 µM) | relative viability ([2]; first compound 0.003162 µM) | relative viability ([2]; first compound 0.01 µM) | relative viability ([2]; first compound 0.03162 µM) | relative viability ([2]; first compound 0.1 µM) | relative viability ([3]; first compound 0.003162 µM) | relative viability ([3]; first compound 0.01 µM) | relative viability ([3]; first compound 0.03162 µM) | relative viability ([3]; first compound 0.1 µM) | relative viability ([4]; first compound 0.003162 µM) | relative viability ([4]; first compound 0.01 µM) | relative viability ([4]; first compound 0.03162 µM) | relative viability ([4]; first compound 0.1 µM) | relative viability ([5]; first compound 0.003162 µM) | relative viability ([5]; first compound 0.01 µM) | relative viability ([5]; first compound 0.03162 µM) | relative viability ([5]; first compound 0.1 µM) |
| --- | --- | --- | --- | --- | --- | --- | --- | --- | --- | --- | --- | --- | --- | --- | --- | --- | --- | --- | --- | --- |
| LCLC-97TM1 | 0.175 | 0.16 | 0.141 | 0.116 | 0.234 | 0.158 | 0.16 | 0.0576 | 0.791 | 0.877 | 0.781 | 0.247 | 0.402 | 0.295 | 0.379 | 0.0862 | 0.189 | 0.193 | 0.277 | 0.129 |
| LCLC-103H | 1.11 | 1.02 | 1.01 | 1.07 | 0.817 | 0.639 | 0.863 | 0.692 | 0.903 | 0.734 | 1.01 | 0.435 | 0.724 | 0.737 | 0.815 | 0.639 | 0.482 | 0.481 | 0.471 | 0.517 |
| LK-2 | 0.428 | 0.21 | 0.0808 | 0.0624 | – | 0.37 | 0.279 | 0.0458 | 0.197 | 0.172 | 0.178 | 0.136 | 0.65 | 0.503 | 0.332 | 0.0869 | – | 0.717 | 0.695 | 0.0756 |
| LOU-NH91 | 0.925 | 0.856 | 0.703 | 0.542 | 0.769 | 0.726 | 0.563 | 0.471 | 0.334 | 0.339 | 0.33 | 0.28 | 0.898 | 0.825 | 0.829 | 0.606 | 0.518 | 0.566 | 0.535 | 0.508 |
| LU99A | 0.544 | – | 0.615 | 0.117 | 0.357 | 0.329 | 0.418 | 0.185 | 0.264 | 0.21 | 0.227 | 0.189 | 0.286 | 0.223 | 0.247 | 0.173 | 0.394 | 0.269 | 0.408 | 0.179 |
| LXF-289 | 0.941 | 0.863 | 0.938 | 0.693 | 1.01 | 1.04 | 0.974 | 0.509 | 0.676 | 0.661 | 0.691 | 0.316 | 1.11 | 1.01 | 0.939 | 0.544 | 0.627 | 0.561 | 0.548 | 0.36 |
| NCI-H23 | 0.572 | – | 0.504 | 0.143 | 0.29 | 0.164 | 0.176 | 0.108 | 0.171 | 0.17 | 0.154 | 0.164 | 0.3 | 0.267 | 0.187 | 0.0908 | 0.531 | 0.413 | 0.269 | 0.127 |
| NCI-H322M | 0.977 | – | 0.916 | 0.606 | 0.484 | 0.411 | 0.259 | 0.161 | 0.311 | 0.288 | 0.231 | 0.14 | 0.665 | 0.572 | 0.388 | 0.208 | 0.387 | 0.381 | 0.331 | 0.246 |
| NCI-H358 | 0.279 | 0.234 | 0.152 | 0.156 | 0.305 | 0.182 | 0.161 | 0.102 | 0.194 | 0.141 | 0.137 | 0.117 | 0.758 | 0.346 | 0.107 | 0.138 | 0.132 | 0.105 | 0.0798 | 0.0844 |
| NCI-H441 | 0.386 | 0.511 | 0.276 | 0.0877 | 1.14 | 1.07 | 1.02 | 0.203 | 0.312 | 0.446 | 0.29 | 0.111 | 0.48 | 0.602 | 0.311 | 0.148 | 0.253 | 0.22 | 0.126 | 0.081 |
| NCI-H460 | 0.719 | 0.123 | 0.0104 | 0.01 | 0.547 | 0.513 | 0.232 | 0.048 | 0.0311 | 0.0324 | 0.0198 | 0.0215 | 0.421 | 0.251 | 0.194 | 0.0303 | 0.185 | 0.138 | 0.0179 | 0.0102 |
| NCI-H647 | 1.1 | 0.801 | 0.753 | 0.0738 | 0.539 | 0.253 | 0.0623 | 0.0307 | 0.113 | 0.0912 | 0.0748 | 0.0628 | 0.547 | 0.357 | 0.128 | 0.0704 | 0.309 | 0.257 | 0.128 | 0.0311 |
| NCI-H650 | 1.04 | 0.308 | 0.304 | 0.291 | 1.23 | 0.848 | 0.387 | 0.23 | 0.791 | 0.401 | 0.196 | 0.18 | 0.426 | 0.319 | 0.204 | 0.241 | 0.328 | 0.292 | 0.174 | 0.133 |
| NCI-H727 | 0.297 | 0.217 | 0.117 | 0.0471 | 0.569 | 0.683 | 0.572 | 0.346 | 0.388 | 0.478 | 0.22 | 0.123 | 0.587 | 0.7 | 0.712 | 0.416 | 0.633 | 0.494 | 0.676 | 0.497 |
| NCI-H838 | 1.02 | 0.907 | 0.879 | 0.688 | 0.989 | 0.87 | 0.735 | 0.613 | 0.33 | 0.235 | 0.166 | 0.109 | 0.765 | 0.721 | 0.488 | 0.215 | 0.229 | 0.189 | 0.247 | 0.143 |
| NCI-H1355 | 0.803 | 0.663 | 0.486 | 0.17 | 0.793 | 0.7 | 0.478 | 0.179 | 0.713 | 0.623 | 0.413 | 0.171 | 0.724 | 0.648 | 0.347 | 0.209 | 0.429 | 0.344 | 0.3 | 0.171 |
